Measurements from patent publication US20090147264A1, “LABEL-FREE, REAL-TIME DETECTION SYSTEM FOR MOLECULAR INTERACTION ANALYSIS” (The University of Pittsburgh - Of the Commonwealth System …, priority 2007, published 2009).

Assays:
RAGE = RAGE (Homo sapiens, UniProt Q15109); assay: BLI binding of sRAGE to HMGB1 in the presence of DNA; conditions: for Kd: sRAGE binding to HMGB1 in the presence of the DNA, + CP = with cisplatin, read-out: Affinity to RAGE
HMGB1 [1] = biological target: T1, HMGB1 (Homo sapiens, UniProt P09429); assay: Biolayer interferometry (BLI) binding of DNA to HMGB1 coupled to a biolayer sensor; conditions: for Kd: HMGB1 amide-coupled to biolayer sensor, + CP = with cisplatin, read-out: Affinity to HMGB1; for effect of addition of platinum compound on DNA binding / affinity of DNA to HMGB1: platinum compound added to DNA
T1 sequence (P09429 1-215): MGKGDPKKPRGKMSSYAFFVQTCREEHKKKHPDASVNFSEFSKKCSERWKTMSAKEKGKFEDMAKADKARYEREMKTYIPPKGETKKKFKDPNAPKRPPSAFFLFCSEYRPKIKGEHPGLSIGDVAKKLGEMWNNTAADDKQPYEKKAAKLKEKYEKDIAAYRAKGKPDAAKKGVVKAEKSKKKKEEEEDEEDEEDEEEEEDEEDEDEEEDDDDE

HMGB1 [2] = biological target: HMGB1 (Homo sapiens?) (UniProt P09429); assay: BLI; conditions: given as affinity, unit not stated (M assumed)

Chain of RAGE (Q15109 23-342 limits assumed, one chain of several): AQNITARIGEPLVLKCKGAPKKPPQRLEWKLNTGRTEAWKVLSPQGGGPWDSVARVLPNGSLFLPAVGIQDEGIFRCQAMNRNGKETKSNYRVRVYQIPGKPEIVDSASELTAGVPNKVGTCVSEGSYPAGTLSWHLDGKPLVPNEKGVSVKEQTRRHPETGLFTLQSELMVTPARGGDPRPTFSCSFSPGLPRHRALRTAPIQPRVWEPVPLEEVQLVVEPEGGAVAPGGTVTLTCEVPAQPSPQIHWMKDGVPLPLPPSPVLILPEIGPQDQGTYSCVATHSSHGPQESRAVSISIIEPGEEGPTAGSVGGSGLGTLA

5′-CCTCTCTGGACCTTCC*T*T*T*T*GGAAGGTCCAGAGA*G*G [Oligo 1]
Kd (RAGE): 8.7 nM
Kd (HMGB1 [1]): 6.6 nM

5′-CTGGACCTTCC*T*T*T*T*GGAAGGTCC*A*G [Oligo 2]
Kd (RAGE): 4.3 nM
Kd (HMGB1 [1]): 33 nM

5′-GTA cGA agT CCG TTC cTa GGC tTG ct-3′ (5'-GTA cGA agT CCG TTC cTa GGC tTG ct-3'; as printed in the source, key not given here) [Scrambled 2, scrambled hairpin oligonucleotide used as a control]
Kd (RAGE): 3.9 nM
Kd (HMGB1 [1]): 180 nM

5′-cTC CGA CGc tCA aTG cTG GTA CGG Tat CCG TgT TAG-3′ (CTCCGACGCTCAATGCTGGTACGGTATCCGTGTTAG; chemistry not given here) [Scrambled 1, scrambled hairpin oligonucleotide used as a control]
Kd (RAGE): 8.7 nM
Kd (HMGB1 [1]): 51 nM

N.N.O=C([O-])C1(C(=O)[O-])CCC1.[Pt+2] [carboplatinum, carboplatin]
effect of addition of platinum compound on DNA binding / affinity of DNA to HMGB1 (HMGB1 [1]): enhanced DNA binding

N.N.[Cl][Pt][Cl] [cisplatin]
effect of cisplatin on affinity between sRAGE and HMGB1 (RAGE; in the presence of cisplatin): No increased affinity
effect of addition of platinum compound on DNA binding / affinity of DNA to HMGB1 (HMGB1 [1]): increases the affinity
effect of addition of platinum compound on DNA binding / affinity of DNA to HMGB1 (HMGB1 [1]; listed as cis-platinum): enhanced DNA binding

O=C1[O][Pt]2([NH][C@@H]3CCCC[C@H]3[NH]2)[O]C1=O [oxaliplatin]
effect of addition of platinum compound on DNA binding / affinity of DNA to HMGB1 (HMGB1 [1]): enhanced DNA binding

Circular DNA
Kd (HMGB1 [2]; p52 says circular DNA not measured well): 3.6 nM

Linear DNA
Kd (HMGB1 [2]): 0.014 nM
